Here are results for 32 compounds from US12391680B2, “Compounds and compositions for the treatment of cystic fibrosis” (FONDAZIONE ISTITUTO ITALIANO DI TECNOLOGIA, priority 2019, dated 2025).

The assay has as its target mutant CFTR (Homo sapiens, UniProt P13569). The assay can be described thus: Fluorescence assay for CFTR activity (halide-sensitive YFP, HS-YFP). Format: cell-based. Conditions: CFBE41o- and FRT cells with stable expression of mutant CFTR. The procedure: Mutant CFTR activity was determined with the functional assay based on the halide-sensitive yellow fluorescent protein, HS—YFP (Galietta et al., FEBS Lett 499:220-224, 2001). CFBE41o- and FRT cells with stable expression of mutant CFTR and HS—YFP were plated on clear-bottom 96-well black microplates (Code 3603, Corning Life Sciences) at a density of 50,000 cells/well and kept at 37° C. in 5% CO2 for 24 hours.
For the corrector assay, cells were treated for further 24 hours with test compounds, vehicle (DMSO), or the positive control VX-809. After treatment, the culture medium was removed and cells in each well were stimulated for 30 min at 37° C. with 60 μL PBS (containing 137 mM NaCl, 2.7 mM KCl, 8.1 mM Na2HPO4, 1.5 mM KH2PO4, 1 mM CaCl2, and 0.5 mM MgCl2) plus forskolin (20 μM) and genistein (50 μM).
For determination of potentiator activity on F508del-CFTR, cells were incubated for 24 hours at 27° C. to allow trafficking of the mutant protein to plasma membrane. Cells were then stimulated with for 30 min with PBS containing forskolin (20 μM) plus the compound to be tested at the desired concentration. For determination of potentiator activity on G551D-CFTR or G1349D-CFTR, cells were directly stimulated with forskolin plus test compound without previous incubation at low temperature. At the time of assay, microplates carrying CFBE41o- or FRT cells were transferred to microplate readers (BMG Labtech) equipped with high-quality excitation (HQ500/20×: 500±10 nm) and emission (HQ535/30M: 535±15 nm) filters for YFP (Chroma Technology). The assay consisted of a continuous 14 s fluorescence reading with 2 s before and 12 s after injection of an iodide-containing solution (165 μL of a modified PBS containing I^− instead of Cl^−; final I^− concentration in the well: 100 mM). Data were normalized to the initial background-subtracted fluorescence. Enhanced CFTR activity, induced by correctors and/or potentiators, results in accelerated I^− influx that in turn causes faster HS—YFP quenching (Pedemonte et al., Mol Pharmacol 68:1736-1746, 2005; Pedemonte et al., J Clin Invest 115:2564-2571, […]). To determine fluorescence quenching rate associated with I^− influx, the final 10 s of data for each well were fitted with an exponential function to extrapolate initial slope (dF/dt).
EC50 obtained are illustrated in Table 1 wherein+: EC50>2 μM; ++: 1.0 μM <EC50<2 μM; +++: EC50<1 μM.

Chain of mutant CFTR (P13569 with tags, fused parts or gaps DEL508-508): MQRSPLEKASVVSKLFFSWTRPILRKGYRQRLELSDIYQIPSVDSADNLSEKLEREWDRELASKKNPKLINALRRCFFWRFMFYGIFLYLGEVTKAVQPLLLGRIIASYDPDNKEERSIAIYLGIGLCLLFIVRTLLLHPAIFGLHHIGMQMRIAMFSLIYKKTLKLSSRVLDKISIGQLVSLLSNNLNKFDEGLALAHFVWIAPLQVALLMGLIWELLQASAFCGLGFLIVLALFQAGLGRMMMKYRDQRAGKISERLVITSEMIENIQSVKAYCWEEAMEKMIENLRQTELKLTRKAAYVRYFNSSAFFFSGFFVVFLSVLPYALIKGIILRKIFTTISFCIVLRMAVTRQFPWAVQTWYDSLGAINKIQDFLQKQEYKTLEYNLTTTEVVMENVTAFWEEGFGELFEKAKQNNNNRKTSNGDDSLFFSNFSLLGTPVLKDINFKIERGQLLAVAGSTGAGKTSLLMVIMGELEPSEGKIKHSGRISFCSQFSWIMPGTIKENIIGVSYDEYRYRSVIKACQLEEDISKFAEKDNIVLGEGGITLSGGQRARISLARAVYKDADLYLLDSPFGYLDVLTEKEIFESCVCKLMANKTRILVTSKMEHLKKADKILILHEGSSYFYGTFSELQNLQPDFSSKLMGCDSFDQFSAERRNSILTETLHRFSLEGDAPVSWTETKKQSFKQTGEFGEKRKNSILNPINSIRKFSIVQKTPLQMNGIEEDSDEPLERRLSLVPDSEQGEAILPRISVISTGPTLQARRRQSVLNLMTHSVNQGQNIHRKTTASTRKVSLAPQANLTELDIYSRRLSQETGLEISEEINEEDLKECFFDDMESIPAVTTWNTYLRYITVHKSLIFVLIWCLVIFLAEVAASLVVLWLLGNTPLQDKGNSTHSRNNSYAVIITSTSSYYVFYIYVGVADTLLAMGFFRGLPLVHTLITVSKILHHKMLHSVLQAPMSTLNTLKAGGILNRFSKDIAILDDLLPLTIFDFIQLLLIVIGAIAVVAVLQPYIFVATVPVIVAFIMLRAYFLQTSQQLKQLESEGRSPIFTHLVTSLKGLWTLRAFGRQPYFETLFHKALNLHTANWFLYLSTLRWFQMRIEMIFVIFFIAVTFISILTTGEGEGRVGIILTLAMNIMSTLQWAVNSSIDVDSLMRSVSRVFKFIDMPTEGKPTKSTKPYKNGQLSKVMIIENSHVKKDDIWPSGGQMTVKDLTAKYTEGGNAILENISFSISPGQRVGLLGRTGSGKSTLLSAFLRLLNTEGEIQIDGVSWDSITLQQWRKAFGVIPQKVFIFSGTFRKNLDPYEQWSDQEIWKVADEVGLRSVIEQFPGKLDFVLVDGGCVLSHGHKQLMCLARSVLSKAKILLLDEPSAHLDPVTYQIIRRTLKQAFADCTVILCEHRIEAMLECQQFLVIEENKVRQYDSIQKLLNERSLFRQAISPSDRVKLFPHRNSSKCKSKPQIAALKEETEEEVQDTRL

Turning to `NC(=O)c1sc2ccccc2c1C1CN(S(=O)(=O)c2cccc(Br)c2)CCO1` (racemic) [compound 009, rac-3-[4-(3-bromophenyl)sulfonylmorpholin-2-yl]benzothiophene-2-carboxamide], the EC50 – broadly, the concentration needed to bring the measured effect to its halfway point – was > 2000 nM. Consider `COc1ccc(S(=O)(=O)N2CCOC(c3c(C(N)=O)sc4ccccc34)C2)cc1F` (racemic) [compound 053, rac-3-[4-(3-fluoro-4-methoxy-phenyl)sulfonylmorpholin-2-yl]benzothiophene-2-carboxamide], for which the concentration giving a half-maximal response (EC50) was > 2000 nM. Next, `Cc1cc(S(=O)(=O)N2CCO[C@@H](c3c(C(N)=O)sc4ccccc34)C2)ccc1F` (single isomer, unassigned) [compound 014]: > 2000 nM; `Cc1ccc(S(=O)(=O)N2CCOC(c3c(C(N)=O)sc4ccccc34)C2)cc1` (racemic) [compound 033, rac-3-[4-(p-tolylsulfonyl)morpholin-2-yl]benzothiophene-2-carboxamide]: < 1000 nM. Next, `Cc1ccc(S(=O)(=O)N2CCO[C@@H](c3c(C(N)=O)sc4ccccc34)C2)cc1F` (single isomer, unassigned) [compound 072]: > 2000 nM; `CNC(=O)c1sc2ccccc2c1C1CN(S(=O)(=O)c2ccc(F)c(C)c2)CCO1` (racemic) [compound 028, rac-3-[4-(4-fluoro-3-methyl-phenyl)sulfonylmorpholin-2-yl]-N-methyl-benzothiophene-2-carboxamide]: > 2000 nM. Next, `CN(C)C(=O)c1sc2ccccc2c1C1CN(S(=O)(=O)C2CCCC2)CCO1` (centres unmarked) [compound 078, 3-[4-(cyclopentylsulfonyl)-2-morpholinyl]-N,N-dimethyl-1-benzothiophene-2-carboxamide]: > 2000 nM; `Cc1ccc(S(=O)(=O)N2CCOC(c3c(C(N)=O)sc4ccccc34)C2)cc1F` (racemic) [compound 026, rac-3-[4-(3-fluoro-4-methyl-phenyl)sulfonylmorpholin-2-yl]benzothiophene-2-carboxamide]: < 1000 nM. Consider `Cc1nc2ccc(S(=O)(=O)N3CCO[C@@H](c4c(C(N)=O)sc5ccccc45)C3)cc2o1` (single isomer, unassigned) [compound 070], for which the EC50 was > 2000 nM. Next, `Cc1cccc(S(=O)(=O)N2CCOC(c3c(C(N)=O)sc4ccccc34)C2)c1` (racemic) [compound 012, rac-3-[4-(m-tolylsulfonyl)morpholin-2-yl]benzothiophene-2-carboxamide]: 1000 to 2000 nM. Next, `NC(=O)c1sc2ccccc2c1C1CN(S(=O)(=O)c2ccc(C(F)(F)F)c(F)c2)CCO1` (single isomer, unassigned) [compound 056]: < 1000 nM; `NC(=O)c1sc2ccccc2c1C1CN(S(=O)(=O)c2ccc3ccccc3c2)CCO1` (racemic) [compound 052, rac-3-[4-(2-naphthylsulfonyl)morpholin-2-yl]benzothiophene-2-carboxamide]: > 2000 nM; `NC(=O)c1sc2ccccc2c1C1CN(S(=O)(=O)C2CCCCC2)CCO1` (racemic) [compound 016, rac-3-[4-cyclohexylsulfonylmorpholin-2-yl]benzothiophene-2-carboxamide]: > 2000 nM. As to `NC(=O)c1sc2ccccc2c1C1CN(S(=O)(=O)c2ccc(O)cc2)CCO1` (racemic) [compound 068, rac-3-[4-(4-hydroxyphenyl)sulfonylmorpholin-2-yl]benzothiophene-2-carboxamide], the EC50 was > 2000 nM. For `NC(=O)C1=C(C2CN(S(=O)(=O)c3ccc(C(F)(F)F)c(F)c3)CCO2)c2ccccc2S1(=O)=O` (racemic) [compound 074, rac-1,1-dioxo-3-[4-[3-fluoro-4-(trifluoromethyl)phenyl]sulfonylmorpholin-2-yl]benzothiophene-2-carboxamide], the concentration giving a half-maximal response (EC50) was < 1000 nM. Next, `NC(=O)c1sc2ccccc2c1C1CN(S(=O)(=O)c2ccc(F)c(F)c2)CCO1` (racemic) [compound 021, rac-3-[4-(3,4-difluorophenyl)sulfonylmorpholin-2-yl]benzothiophene-2-carboxamide]: > 2000 nM; `COCCS(=O)(=O)N1CCOC(c2c(C(N)=O)sc3ccccc23)C1` (racemic) [compound 059, rac-3-[4-(2-methoxyethylsulfonyl)morpholin-2-yl]benzothiophene-2-carboxamide]: > 2000 nM.

On to `NC(=O)c1sc2ccccc2c1C1CN(S(=O)(=O)c2cccc(C(F)(F)F)c2)CCO1` (racemic) [compound 035, rac-3-[4-[3-(trifluoromethyl)phenyl]sulfonylmorpholin-2-yl]benzothiophene-2-carboxamide], for which the 50% effective concentration (EC50) is < 1000 nM. As to `CC(C)(C)OC(=O)N1CCC(S(=O)(=O)N2CCOC(c3c(C(N)=O)sc4ccccc34)C2)CC1` (racemic) [compound 064, rac-tert-butyl 4-[2-(2-carbamoylbenzothiophen-3-yl)morpholin-4-yl]sulfonylpiperidine-1-carboxylate], the EC50 was > 2000 nM.

As for `NC(=O)c1sc2ccccc2c1C1CN(S(=O)(=O)c2ccccc2OC(F)(F)F)CCO1` (racemic) [compound 067, rac-3-[4-[2-(trifluoromethoxy)phenyl]sulfonylmorpholin-2-yl]benzothiophene-2-carboxamide], the EC50 is > 2000 nM. As for `CCCCS(=O)(=O)N1CCOC(c2c(C(N)=O)sc3ccccc23)C1` (racemic) [compound 061, rac-3-[4-butylsulfonylmorpholin-2-yl]benzothiophene-2-carboxamide], the EC50 was > 2000 nM. Next, `Cc1n[nH]c(C)c1S(=O)(=O)N1CCOC(c2c(C(=O)N(C)C)sc3ccccc23)C1` (centres unmarked) [compound 083, 3-{4-[(3,5-dimethyl-1H-pyrazol-4-yl)sulfonyl]-2-morpholinyl}-N,N-dimethyl-1-benzothiophene-2-carboxamide]: > 2000 nM.

Consider `NC(=O)c1sc2ccccc2c1C1CN(S(=O)(=O)c2ccccc2)CCO1` (racemic) [compound 003, rac-3-[4-(benzenesulfonyl)morpholin-2-yl]benzothiophene-2-carboxamide], for which the concentration giving a half-maximal response (EC50) was > 2000 nM. Next, `NC(=O)c1sc2ccccc2c1[C@H]1CN(S(=O)(=O)c2ccc(C(F)(F)F)c(F)c2)CCO1` (single isomer, unassigned) [compound 055]: > 2000 nM; `NC(=O)c1sc2ccccc2c1C1CN(S(=O)(=O)c2ccc3c(c2)OCO3)CCO1` (racemic) [compound 017, rac-3-[4-(1,3-benzodioxol-5-ylsulfonyl)morpholin-2-yl]benzothiophene-2-carboxamide]: 1000 to 2000 nM; `CC(C)Oc1ccc(S(=O)(=O)N2CCOC(c3c(C(N)=O)sc4ccccc34)C2)cc1` (racemic) [compound 069, rac-3-[4-(4-isopropoxyphenyl)sulfonylmorpholin-2-yl]benzothiophene-2-carboxamide]: < 1000 nM. Next, `CC(C)NC(=O)c1sc2ccccc2c1C1CN(S(=O)(=O)c2cnn(C)c2)CCO1` (centres unmarked) [compound 076, 3-[4-(1-methyl-1H-pyrazole-4-sulfonyl)-morpholin-2-yl]-benzo[b]thiophene-2-carboxylic acid isopropylamide]: > 2000 nM; `Cc1ccc(S(=O)(=O)N2CCO[C@H](c3c(C(N)=O)sc4ccccc34)C2)cc1F` (single isomer, unassigned) [compound 073]: < 1000 nM. Next, `COC(=O)c1ccc(S(=O)(=O)N2CCOC(c3c(C(N)=O)sc4ccccc34)C2)cc1` (racemic) [compound 063, rac-methyl 4-[2-(2-carbamoylbenzothiophen-3-yl)morpholin-4-yl]sulfonylbenzoate]: > 2000 nM; `Cc1cc(S(=O)(=O)N2CCOC(c3c(C(=O)NC(C)C)sc4ccccc34)C2)ccc1F` (racemic) [compound 031, rac-3-[4-(4-fluoro-3-methyl-phenyl)sulfonylmorpholin-2-yl]-N-isopropyl-benzothiophene-2-carboxamide]: > 2000 nM; `COc1ccc(S(=O)(=O)N2CCOC(c3c(C(N)=O)sc4ccccc34)C2)cc1` (racemic) [compound 010, rac-3-[4-(4-methoxyphenyl)sulfonylmorpholin-2-yl]benzothiophene-2-carboxamide]: 1000 to 2000 nM. For `NC(=O)c1sc2ccccc2c1C1CN(S(=O)(=O)c2ccc(Oc3ccccc3)cc2)CCO1` (racemic) [compound 006, rac-3-[4-(4-phenoxyphenyl)sulfonylmorpholin-2-yl]benzothiophene-2-carboxamide], the concentration giving a half-maximal response (EC50) is < 1000 nM.
